One assay has as its target MNK2a (Homo sapiens (Human), UniProt Q9HBH9). In words: MNK2a in vitro kinase assay (Assay 2), ADP-Glo. As to conditions: assay 2; read-out: MNK2 IC50. The assay is classed as biochemical. An excerpt:
B. MNK2a In Vitro Kinase Assay (Assay 2)
(ADP-Glo first removes unused ATP, then detects ADP through luciferase.)
Sequence of MNK1a (Q9BUB5 other isoform, or with tags, fused parts or gaps): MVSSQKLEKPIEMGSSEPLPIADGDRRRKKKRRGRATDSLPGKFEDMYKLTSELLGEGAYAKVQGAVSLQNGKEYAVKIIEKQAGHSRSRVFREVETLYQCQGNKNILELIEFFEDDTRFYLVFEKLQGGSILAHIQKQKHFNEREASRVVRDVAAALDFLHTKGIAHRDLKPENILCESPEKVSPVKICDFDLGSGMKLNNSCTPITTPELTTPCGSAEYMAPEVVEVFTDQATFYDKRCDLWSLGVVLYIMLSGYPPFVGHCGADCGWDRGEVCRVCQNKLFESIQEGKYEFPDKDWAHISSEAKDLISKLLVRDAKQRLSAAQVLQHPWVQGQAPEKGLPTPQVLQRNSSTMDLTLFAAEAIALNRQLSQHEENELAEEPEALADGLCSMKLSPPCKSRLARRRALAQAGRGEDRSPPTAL
Sequence of MNK2a (Q9HBH9 whole entry): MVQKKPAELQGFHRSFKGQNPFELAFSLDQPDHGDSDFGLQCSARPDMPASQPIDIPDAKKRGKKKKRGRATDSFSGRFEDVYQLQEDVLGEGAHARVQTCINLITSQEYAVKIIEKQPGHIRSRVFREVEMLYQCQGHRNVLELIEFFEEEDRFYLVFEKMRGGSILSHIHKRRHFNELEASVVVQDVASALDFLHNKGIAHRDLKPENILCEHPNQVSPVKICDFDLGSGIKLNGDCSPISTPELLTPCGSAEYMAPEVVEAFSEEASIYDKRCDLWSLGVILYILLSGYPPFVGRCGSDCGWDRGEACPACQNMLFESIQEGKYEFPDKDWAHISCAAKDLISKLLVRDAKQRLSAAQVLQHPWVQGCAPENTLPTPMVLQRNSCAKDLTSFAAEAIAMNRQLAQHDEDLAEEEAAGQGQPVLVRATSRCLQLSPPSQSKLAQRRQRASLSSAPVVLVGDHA
A word on the IC50: it is the concentration at which inhibition is half-maximal. `COc1cc(N=S(C)(=O)c2cccnc2)cc2ncnc(Nc3ccc(F)cc3O[C@H]3COC[C@H]3O)c12` (mixture of isomers) [Example 9.12]: the IC50 is 27 nM.
Take `COc1cc(N=S(C)(=O)C2CCOCC2)cc2ncnc(Nc3ccc(F)cc3O[C@H]3COC[C@H]3O)c12` (mixture of isomers) [Example 9.15]: the 50% inhibitory concentration (IC50) came out at 32 nM.
Regarding `COc1cc(N=S(C)(=O)C2CC2)cc2ncnc(Nc3ccc(F)cc3O[C@H]3COC[C@H]3O)c12` (mixture of isomers) [Example 9.17], the IC50 came out at 33 nM.
On to `COc1cc(N=S(C)(=O)C(C)(C)C)cc2ncnc(Nc3ccc(F)cc3O[C@H]3COC[C@H]3O)c12` (mixture of isomers) [Example 9.19], for which the IC50 was 42 nM.
Still for that read-out and setting: the value for `COc1cc(N=S(C)(=O)C(C)C)cc2ncnc(Nc3ccc(F)cc3O[C@H]3COC[C@H]3O)c12` (mixture of isomers) [Example 9.20] was 23 nM.
Still for that read-out and setting: the value for `COc1cc(N=S(C)(=O)c2ccccc2)cc2ncnc(Nc3ccc(F)cc3O[C@H]3COC[C@H]3O)c12` (mixture of isomers) [Example 9.21] was 23 nM.
Turning to `COc1cc(N=S2(=O)CCC(C)C2)cc2ncnc(Nc3ccc(F)cc3O[C@H]3COC[C@H]3O)c12` (mixture of isomers) [Example 9.23], the IC50 is 8 nM.
Regarding `CS(C)(=O)=Nc1cc(Cl)c2c(Nc3ccc(F)cc3O[C@H]3COC[C@H]3O)ncnc2c1` (racemic) [Example 1.3], the IC50 is 3 nM.
In the case of `CO[C@@H]1COC[C@@H]1Oc1cc(F)ccc1Nc1ncnc2cc(N=S(C)(C)=O)cc(Cl)c12` (racemic) [Example 1.4], the IC50 was determined as 2 nM.
With `O=S1(=Nc2cc(Cl)c3c(Nc4ccc(F)cc4O[C@H]4COC[C@H]4O)ncnc3c2)CCCC1` (racemic) [Example 1.5], the IC50 turned out to be 2 nM.
On to `Cc1cc(N=S(C)(C)=O)cc2ncnc(Nc3cccnc3O[C@@H]3COC[C@@H]3O)c12` (racemic) [Example 2.4], for which the IC50 worked out at 17 nM.
As to `Cc1cc(N=S2(=O)CCCC2)cc2ncnc(Nc3ccc(F)cc3O[C@H]3COC[C@H]3O)c12` (racemic) [Example 2.8], the IC50 was determined as 2 nM.
On to `CO[C@@H]1COC[C@@H]1Oc1cc(F)ccc1Nc1ncnc2cc(N=S3(=O)CCCC3)cc(C)c12` (racemic) [Example 2.10], for which the IC50 came to 2 nM.
For `Cc1cc(N=S2(=O)CCCC2)cc2ncnc(Nc3cccnc3O[C@H]3COC[C@H]3OCCF)c12` (racemic) [Example 2.25], the IC50 is 2 nM.
For `CO[C@H]1COC[C@@H]1Oc1ncccc1Nc1ncnc2cc(N=S3(=O)CCCC3)cc(C)c12` (racemic) [Example 2.39], the IC50 turned out to be 7 nM.
`CS(C)(=O)=Nc1cc(F)c2c(Nc3ccc(F)cc3O[C@H]3COC[C@H]3O)ncnc2c1` (racemic) [Example 2.52]: the IC50 was 15 nM.
Still for that read-out and setting: the value for `CO[C@@H]1CCC(Oc2cc(F)ccc2Nc2ncnc3cc(N=S4(=O)CCC4)cc(C)c23)CO1` (mixture of isomers) [Example 2.56] was 2 nM; that for `CO[C@@H]1COC[C@@H]1Oc1cc(F)ccc1Nc1ncnc2cc(N=S(C)(C)=O)cc(F)c12` (racemic) [Example 2.57] was 6 nM; that for `Cc1cc(N=S(C)(=O)C2CCOCC2)cc2ncnc(Nc3ccc(F)cc3O[C@@H]3COC[C@@H]3O)c12` (mixture of isomers) [Example 2.65] was 10 nM.

Another assay addresses MNK1a (Homo sapiens (Human), UniProt Q9BUB5). Briefly: MNK1 in vitro kinase assay (Assay 3), Z'-LYTE. The assay is classed as biochemical.
Conditions: not given
The text has this:
C. MNK1 In Vitro Kinase Assay (Assay 3)
MNK1 Data can be obtained from the MNK1 Z′-LYTE® assay. The MNK1 Z′-LYTE® screening protocol and assay conditions are also described on www.invitrogen.com.
The assay is described as follows:
The Z′-LYTE® biochemical assay employs a fluorescence-based, coupled-enzyme format and is based on the differential sensitivity of phosphorylated and non-phosphorylated peptides to proteolytic cleavage. The peptide substrate is labeled with two fluorophores—one at each end—that make up a FRET pair.
In the primary reaction, the kinase transfers the gamma-phosphate of ATP to a single tyrosine, serine or threonine residue in a synthetic FRET-peptide. In the secondary reaction, a site-specific protease recognizes and cleaves non-phosphorylated FRET-peptides. Phosphorylation of FRET-peptides suppresses cleavage by the Development Reagent. Cleavage disrupts FRET between the donor (i.e., coumarin) and acceptor (i.e., fluorescein) fluorophores on the FRET-peptide, whereas uncleaved, phosphorylated FRET-peptides maintain FRET. A ratiometric method, which calculates the ratio (the Emission Ratio) of donor emission to acceptor emission after excitation of the donor fluorophore at 400 nm, is used to quantitate reaction progress, as shown in the equation below.
The 2×MKNK1 (MNK1) mixture is prepared in 50 mM HEPES pH 7.5, 0.01% BRIJ-35, 10 mM MgCl2, 4 mM MnCl2, 1 mM EGTA, 2 mM DTT.
The Test Compounds are screened in 1% DMSO (final) in the well.
All Peptide/Kinase Mixtures are diluted to a 2× working concentration in the MNK1 Kinase Buffer.
All ATP Solutions are diluted to a 4× working concentration in Kinase Buffer (50 mM HEPES pH 7.5, 0.01% BRIJ-35, 10 mM MgCl2, 1 mM EGTA).
Development Reagent Solution:
The Development Reagent is diluted in Development Buffer
1. 2.5 μL—4× Test Compound
2. 5 μL—2× Peptide/Kinase Mixture
5. 60-minute Kinase Reaction incubation at room temperature
6. 5 μL—Development Reagent Solution
8. 60-minute Development Reaction incubation at room temperature
9. Read on fluorescence plate reader and analyze the data
Control C0%=Average Coumarin emission signal of the 0% Phos. Control F100%=Average Fluorescein emission signal of the 100% Phos. Control F0%=Average Fluorescein emission signal of the 0% Phos. Control Graphing Software
SelectScreen® Kinase Profiling Service uses XLfit from IDBS. […] The activity of MNK proteins can be assayed also by other in vitro kinase assay formats. […] In general, MNK kinase assays can be performed such that a MNK substrate such as a protein or a peptide, which may or may not include modifications as further described below, or others are phosphorylated by MNK proteins having enzymatic activity in vitro. The activity of a candidate agent can then be determined via its ability to decrease the enzymatic activity of the MNK protein. The kinase activity may be detected by change of the chemical, physical or immunological properties of the substrate due to phosphorylation.
`COc1cc(N=S(C)(=O)C(C)(C)C)cc2ncnc(Nc3ccc(F)cc3O[C@H]3COC[C@H]3O)c12` (mixture of isomers) [Example 9.19] registered an IC50 of 329 nM.
As for `Cc1cc(N=S2(=O)CCCC2)cc2ncnc(Nc3cccnc3O[C@H]3COC[C@H]3OCCF)c12` (racemic) [Example 2.25], the IC50 amounted to 46 nM.

The assay is the same for the next values; noted with them: compound concentration of 1 μM, read-out: MNK1 % INH.
In the case of `COc1cc(N=S(C)(=O)c2cccnc2)cc2ncnc(Nc3ccc(F)cc3O[C@H]3COC[C@H]3O)c12` (mixture of isomers) [Example 9.12], the inhibition at 1 µM amounted to 86%.
Same read-out and setting: the value for `COc1cc(N=S(C)(=O)C2CCOCC2)cc2ncnc(Nc3ccc(F)cc3O[C@H]3COC[C@H]3O)c12` (mixture of isomers) [Example 9.15] was 82%; that for `COc1cc(N=S(C)(=O)C2CC2)cc2ncnc(Nc3ccc(F)cc3O[C@H]3COC[C@H]3O)c12` (mixture of isomers) [Example 9.17] was 92%.
For the compound `COc1cc(N=S(C)(=O)C(C)C)cc2ncnc(Nc3ccc(F)cc3O[C@H]3COC[C@H]3O)c12` (mixture of isomers) [Example 9.20], the inhibition at 1 µM was 87%.
Still for that read-out and setting: as for `COc1cc(N=S(C)(=O)c2ccccc2)cc2ncnc(Nc3ccc(F)cc3O[C@H]3COC[C@H]3O)c12` (mixture of isomers) [Example 9.21], the figure is 84%.
For `COc1cc(N=S2(=O)CCC(C)C2)cc2ncnc(Nc3ccc(F)cc3O[C@H]3COC[C@H]3O)c12` (mixture of isomers) [Example 9.23], the inhibition at 1 µM worked out at 93%.
`CS(C)(=O)=Nc1cc(Cl)c2c(Nc3ccc(F)cc3O[C@H]3COC[C@H]3O)ncnc2c1` (racemic) [Example 1.3]: the inhibition at 1 µM is 95%.
Regarding `CO[C@@H]1COC[C@@H]1Oc1cc(F)ccc1Nc1ncnc2cc(N=S(C)(C)=O)cc(Cl)c12` (racemic) [Example 1.4], the inhibition at 1 µM was 97%.
On to `O=S1(=Nc2cc(Cl)c3c(Nc4ccc(F)cc4O[C@H]4COC[C@H]4O)ncnc3c2)CCCC1` (racemic) [Example 1.5], for which the inhibition at 1 µM came to 88%.
In the case of `Cc1cc(N=S(C)(C)=O)cc2ncnc(Nc3cccnc3O[C@@H]3COC[C@@H]3O)c12` (racemic) [Example 2.4], the inhibition at 1 µM was 93%.
On to `Cc1cc(N=S2(=O)CCCC2)cc2ncnc(Nc3ccc(F)cc3O[C@H]3COC[C@H]3O)c12` (racemic) [Example 2.8], for which the inhibition at 1 µM turned out to be 100%.
As for `CO[C@@H]1COC[C@@H]1Oc1cc(F)ccc1Nc1ncnc2cc(N=S3(=O)CCCC3)cc(C)c12` (racemic) [Example 2.10], the inhibition at 1 µM was 105%.
For the compound `CO[C@H]1COC[C@@H]1Oc1ncccc1Nc1ncnc2cc(N=S3(=O)CCCC3)cc(C)c12` (racemic) [Example 2.39], the inhibition at 1 µM is 86%.
With `CS(C)(=O)=Nc1cc(F)c2c(Nc3ccc(F)cc3O[C@H]3COC[C@H]3O)ncnc2c1` (racemic) [Example 2.52], the inhibition at 1 µM worked out at 97%.
The same measure, in the same setting: the value for `CO[C@@H]1CCC(Oc2cc(F)ccc2Nc2ncnc3cc(N=S4(=O)CCC4)cc(C)c23)CO1` (mixture of isomers) [Example 2.56] was 95%; that for `CO[C@@H]1COC[C@@H]1Oc1cc(F)ccc1Nc1ncnc2cc(N=S(C)(C)=O)cc(F)c12` (racemic) [Example 2.57] was 82%; that for `Cc1cc(N=S(C)(=O)C2CCOCC2)cc2ncnc(Nc3ccc(F)cc3O[C@@H]3COC[C@@H]3O)c12` (mixture of isomers) [Example 2.65] was 100%.

The record behind these values is patent US10093660B2, “Sulfoximine substituted quinazolines for pharmaceutical compositions” (EVOTEC INTERNATIONAL GMBH, priority 2013, dated 2018).
